Results: patent US10604554B2, “Double-acylated GLP-1 derivatives” (Novo Nordisk A/S, priority 2012, dated 2020)
Read-outs that look alike come from different tables or passages of the source. Numbered stars: 1 amine (or outer) side, 2 acyl side, 3 side chain; on linkers, the order of the positions; unused ones are H or OH. Square brackets hold non-standard residues; d marks the D form. Side chains are listed from the residue outwards. Peptide text beside a SMILES is read from it. * marks the point of attachment. Decanoyl(10-(4-HOOC-PhO)) = O=C(O)c1ccc(OCCCCCCCCCC(=O)*)cc1; γGlu = O=C(O)[C@H](CCC(=O)[*:2])N[*:1]; εLys = N[C@@H](CCCCN[*:1])C(=O)[*:2]; AEEA = NCCOCCOCC(=O)O; Aib = CC(C)(N)C(=O)O

Target: T1, human GLP-1 receptor (Homo sapiens, UniProt P43220)
T1 construct: expressed in transfected cells; host or cells: BHK cells, clone FCW467-12A/KZ10-1 (parent line BHKTS13), further transfected with CRE luciferase
T1 sequence (P43220 24-463): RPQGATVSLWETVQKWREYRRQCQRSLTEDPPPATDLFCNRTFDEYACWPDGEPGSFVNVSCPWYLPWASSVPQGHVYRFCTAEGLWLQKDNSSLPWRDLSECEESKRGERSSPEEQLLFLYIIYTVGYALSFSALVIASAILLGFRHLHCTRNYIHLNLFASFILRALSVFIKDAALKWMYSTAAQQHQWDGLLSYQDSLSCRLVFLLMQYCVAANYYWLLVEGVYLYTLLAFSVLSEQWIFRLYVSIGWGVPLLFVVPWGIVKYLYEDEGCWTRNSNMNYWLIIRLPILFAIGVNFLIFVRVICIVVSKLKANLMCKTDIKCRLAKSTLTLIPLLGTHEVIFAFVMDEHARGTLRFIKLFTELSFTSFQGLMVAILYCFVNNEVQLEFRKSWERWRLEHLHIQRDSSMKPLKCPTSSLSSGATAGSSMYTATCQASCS
Test: In vitro potency (AlphaScreen cAMP, membranes)
Format: biochemical
Description: The purpose of this example is to test the activity, or potency, of the GLP-1 derivatives in vitro.
Purified plasma membranes from a stable transfected cell line, BHK467-12A (tk-ts13), expressing the human GLP-1 receptor were stimulated with the GLP-1 analogue or derivative in question, and the potency of cAMP production was measured using the AlphaScreen™ cAMP Assay Kit from Perkin Elmer Life Sciences. The basic principle of the AlphaScreen Assay is a competition between endogenous cAMP and exogenously added biotin-cAMP. The capture of cAMP is achieved by using a specific antibody conjugated to acceptor beads.
A stable transfected cell line and a high expressing clone were selected for screening. The cells were grown at 5% CO2 in DMEM, 5% FCS, 1% Pen/Strep (Penicillin/Streptomycin) and 0.5 mg/ml of the selection marker G418.
Cells at approximately 80% confluence were washed 2× with PBS and harvested with Versene (aqueous solution of the tetrasodium salt of ethylenediaminetetraacetic acid), centrifuged 5 min at 1000 rpm and the supernatant removed. The additional steps were all performed on ice. The cell pellet was homogenised by the Ultrathurax for 20-30 s in 10 ml of Buffer 1 (20 mM Na-HEPES, 10 mM EDTA, pH=7.4), centrifuged 15 min at 20,000 rpm and the pellet resuspended in 10 ml of Buffer 2 (20 mM Na-HEPES, 0.1 mM EDTA, pH=7.4). The suspension was homogenised for 20-30 s and centrifuged 15 min at 20,000 rpm. Suspension in Buffer 2, homogenisation and centrifugation was repeated once and the membranes were resuspended in Buffer 2. The protein concentration was determined and the membranes stored at −80° C. until use.
The assay was performed in flat-bottom 96-well plates (Costar cat. no:3693). The final volume per well was 50 μl.
AlphaScreen cAMP Assay Kit from Perkin Elmer Life Sciences (cat. No: 6760625M); containing Anti-cAMP Acceptor beads (10 U/μl), Streptavidin Donor beads (10 U/μl) and Biotinylated-cAMP (133 U/μl).
AlphaScreen Buffer, pH=7.4: 50 mM TRIS-HCl (Sigma, cat.no: T3253); 5 mM HEPES (Sigma, cat.no: H3375); 10 mM MgCl2, 6H2O (Merck, cat.no: 5833); 150 mM NaCl (Sigma, cat.no: S9625); 0.01% Tween (Merck, cat.no: 822184). The following was added to the AlphaScreen Buffer prior to use (final concentrations indicated): BSA (Sigma, cat. no. A7906): 0.1%; IBMX (Sigma, cat. no. 15879): 0.5 mM; ATP (Sigma, cat. no. A7699): 1 mM; GTP (Sigma, cat. no. G8877): 1 uM.
cAMP standard (dilution factor in assay=5): cAMP Solution: 5 μL of a 5 mM cAMP-stock+495 μL AlphaScreen Buffer.
Membranes were prepared from hGLP-1/BHK 467-12A cells with a concentration of 6 μg/well corresponding to 0.6 mg/ml (the amount of membranes used pr. well may vary)
“No membranes”: Acceptor Beads (15 μg/ml final) in AlphaScreen buffer
“6 μg/well membranes”: membranes+Acceptor Beads (15 μg/ml final) in AlphaScreen buffer
An aliquot (10 μl) of “No membranes” was added to the cAMP standard (per well in duplicate wells) and the positive and negative controls
An aliquot (10 μl) of “6 μg/well membranes” was added to GLP-1 and analogues (per well in duplicate or triplicate wells)
Pos. Control: 10 μl “no membranes”+10 μl AlphaScreen Buffer
Neg. Control: 10 μl “no membranes”+10 μl cAMP Stock Solution (50 μM)
As the beads are sensitive to direct light, any handling was in the dark (as dark as possible), or in green light. All dilutions were made on ice.
1. Make the AlphaScreen Buffer.
2. Dissolve and dilute the GLP-1/Analogues/cAMP standard in AlphaScreen Buffer.
3. Make the Donor Beads Solution by mixing streptavidin donor beads (2 units/well) and biotinylated cAMP (1.2 units/well) and incubate 20-30 min in the dark at room temperature
4. Add the cAMP/GLP-1/Analogues to the plate: 10 μl per well.
5. Prepare membrane/Acceptor Beads solution and add this to the plates: 10 μl per well.
6. Add the Donor Beads: 30 μl per well.
7. Wrap the plate in aluminum foil and incubate on the shaker for 3 hours (very slowly) at RT.

SMILES | EC50 [nM] | EC50 (cAMP formation in membranes from BHK467-12A cells expressing human GLP-1 receptor, read-out: In vitro potency (AlphaScreen) EC50) [nM]
CC[C@H](C)[C@H](NC(=O)[C@H](Cc1ccccc1)NC(=O)[C@H](CCC(=O)O)NC(=O)[C@H](CCCCNC(=O)[C@@H](N)CCCCNC(=O)[C@@H](N)CCCCNC(=O)CC[C@H](NC(=O)CCCCCCCCCCOc1ccc(C(=O)O)cc1)C(=O)O)NC(=O)[C@H](C)NC(=O)[C@H](C)NC(=O)[C@H](CCC(N)=O)NC(=O)CNC(=O)[C@H](CCC(=O)O)NC(=O)[C@H](CC(C)C)NC(=O)[C@H](Cc1ccc(O)cc1)NC(=O)[C@H](CO)NC(=O)[C@H](CO)NC(=O)[C@@H](NC(=O)[C@H](CC(=O)O)NC(=O)[C@H](CO)NC(=O)[C@@H](NC(=O)[C@H](Cc1ccccc1)NC(=O)[C@@H](NC(=O)CNC(=O)[C@H](CCC(=O)O)NC(=O)C(C)(C)NC(=O)[C@@H](N)Cc1c[nH]cn1)[C@@H](C)O)[C@@H](C)O)C(C)C)C(=O)N[C@@H](C)C(=O)N[C@@H](Cc1c[nH]c2ccccc12)C(=O)N[C@@H](CC(C)C)C(=O)N[C@H](C(=O)N[C@@H](CCCNC(=N)N)C(=O)NCC(=O)N[C@@H](CCCNC(=N)N)C(=O)N[C@@H](CCCCNC(=O)[C@@H](N)CCCCNC(=O)[C@@H](N)CCCCNC(=O)CC[C@H](NC(=O)CCCCCCCCCCOc1ccc(C(=O)O)cc1)C(=O)O)C(=O)O)C(C)C [Example 20, N^ε26-[(2S)-2-amino-6-[[(2S)-2-amino-6-[[(4S)-4-carboxy-4-[11-(4-carboxyphenoxy)undecanoylamino]butanoyl]amino]hexanoyl]amino]hexanoyl], N^ε37-[(2S)-2-amino-6-[[(2S)-2-amino-6-[[(4S)-4-carboxy-4-[11-(4-carboxyphenoxy)undecanoylamino]butanoyl]amino]hexanoyl]amino]hexanoyl]-[Aib^8,Arg^34,Lys^37]-GLP-1-(7-37)-peptide] | 0.071 | –
CC[C@H](C)[C@H](NC(=O)[C@H](Cc1ccccc1)NC(=O)[C@H](CCC(=O)O)NC(=O)[C@H](CCCCNC(=O)[C@@H](N)CCCCNC(=O)COCCOCCNC(=O)COCCOCCNC(=O)CC[C@H](NC(=O)CCCCCCCCCCCCCCC(=O)O)C(=O)O)NC(=O)[C@H](C)NC(=O)[C@H](C)NC(=O)[C@H](CCC(N)=O)NC(=O)CNC(=O)[C@H](CCC(=O)O)NC(=O)[C@H](CC(C)C)NC(=O)[C@H](Cc1ccc(O)cc1)NC(=O)[C@H](CO)NC(=O)[C@H](CO)NC(=O)[C@@H](NC(=O)[C@H](CC(=O)O)NC(=O)[C@H](CO)NC(=O)[C@@H](NC(=O)[C@H](Cc1ccccc1)NC(=O)[C@@H](NC(=O)CNC(=O)[C@H](CCC(=O)O)NC(=O)C(C)(C)NC(=O)[C@@H](N)Cc1c[nH]cn1)[C@@H](C)O)[C@@H](C)O)C(C)C)C(=O)N[C@@H](C)C(=O)N[C@@H](Cc1c[nH]c2ccccc12)C(=O)N[C@@H](CC(C)C)C(=O)N[C@H](C(=O)N[C@@H](CCCNC(=N)N)C(=O)NCC(=O)N[C@@H](CCCNC(=N)N)C(=O)N[C@@H](CCCCNC(=O)[C@@H](N)CCCCNC(=O)COCCOCCNC(=O)COCCOCCNC(=O)CC[C@H](NC(=O)CCCCCCCCCCCCCCC(=O)O)C(=O)O)C(=O)O)C(C)C [Example 10, N^ε26-[(2S)-2-amino-6-[[2-[2-[2-[[2-[2-[2-[[(4S)-4-carboxy-4-(15-carboxypentadecanoylamino)butanoyl]amino]ethoxy]ethoxy]acetyl]amino]ethoxy]ethoxy]acetyl]amino]hexanoyl], N^ε37-[(2S)-2-amino-6-[[2-[2-[2-[[2-[2-[2-[[(4S)-4-carboxy-4-(15-carboxypentadecanoylamino)butanoyl]amino]ethoxy]ethoxy]acetyl]amino]ethoxy]ethoxy]acetyl]amino]hexanoyl]-[Aib^8,Arg^34,Lys^37]-GLP-1-(7-37)-peptide] | – | 0.492
CC[C@H](C)[C@H](NC(=O)[C@H](Cc1ccccc1)NC(=O)[C@H](CCC(=O)O)NC(=O)[C@H](CCCCNC(=O)[C@@H](N)CCCCNC(=O)COCCOCCNC(=O)COCCOCCNC(=O)CC[C@H](NC(=O)CCCCCCCCCOc1ccc(C(=O)O)cc1)C(=O)O)NC(=O)[C@H](C)NC(=O)[C@H](C)NC(=O)[C@H](CCC(N)=O)NC(=O)[C@H](CCC(=O)O)NC(=O)[C@H](CCC(=O)O)NC(=O)[C@H](CC(C)C)NC(=O)[C@H](Cc1ccc(O)cc1)NC(=O)[C@H](CO)NC(=O)[C@H](CO)NC(=O)[C@@H](NC(=O)[C@H](CC(=O)O)NC(=O)[C@H](CO)NC(=O)[C@@H](NC(=O)[C@H](Cc1ccccc1)NC(=O)[C@@H](NC(=O)CNC(=O)[C@H](CCC(=O)O)NC(=O)C(C)(C)NC(=O)[C@@H](N)Cc1c[nH]cn1)[C@@H](C)O)[C@@H](C)O)C(C)C)C(=O)N[C@@H](C)C(=O)N[C@@H](Cc1c[nH]c2ccccc12)C(=O)N[C@@H](CC(C)C)C(=O)N[C@H](C(=O)N[C@@H](CCC(N)=O)C(=O)NCC(=O)N[C@@H](CCCNC(=N)N)C(=O)N[C@@H](CCCCNC(=O)[C@@H](N)CCCCNC(=O)COCCOCCNC(=O)COCCOCCNC(=O)CC[C@H](NC(=O)CCCCCCCCCOc1ccc(C(=O)O)cc1)C(=O)O)C(=O)O)C(C)C [Example 18] (H-H[Aib]EGTFTSDVSSYLEEQAAK([εLys-AEEA-AEEA-γGlu-Decanoyl(10-(4-HOOC-PhO))])EFIAWLVQGRK([εLys-AEEA-AEEA-γGlu-Decanoyl(10-(4-HOOC-PhO))])-OH; N-terminus and C-terminus assumed) | 0.075 | –
CC[C@H](C)[C@H](NC(=O)[C@H](Cc1ccccc1)NC(=O)[C@H](CCC(=O)O)NC(=O)[C@H](CCCCNC(=O)[C@@H](N)CCCCNC(=O)COCCOCCNC(=O)COCCOCCNC(=O)CC[C@H](NC(=O)CCCCCCCCCCCOc1ccc(C(=O)O)cc1)C(=O)O)NC(=O)[C@H](C)NC(=O)[C@H](C)NC(=O)[C@H](CCC(N)=O)NC(=O)CNC(=O)[C@H](CCC(=O)O)NC(=O)[C@H](CC(C)C)NC(=O)[C@H](Cc1ccc(O)cc1)NC(=O)[C@H](CO)NC(=O)[C@H](CO)NC(=O)[C@@H](NC(=O)[C@H](CC(=O)O)NC(=O)[C@H](CO)NC(=O)[C@@H](NC(=O)[C@H](Cc1ccccc1)NC(=O)[C@@H](NC(=O)CNC(=O)[C@H](CCC(=O)O)NC(=O)C(C)(C)NC(=O)[C@@H](N)Cc1c[nH]cn1)[C@@H](C)O)[C@@H](C)O)C(C)C)C(=O)N[C@@H](C)C(=O)N[C@@H](Cc1c[nH]c2ccccc12)C(=O)N[C@@H](CC(C)C)C(=O)N[C@H](C(=O)N[C@@H](CCCNC(=N)N)C(=O)NCC(=O)N[C@@H](CCCNC(=N)N)C(=O)N[C@@H](CCCCNC(=O)[C@@H](N)CCCCNC(=O)COCCOCCNC(=O)COCCOCCNC(=O)CC[C@H](NC(=O)CCCCCCCCCCCOc1ccc(C(=O)O)cc1)C(=O)O)C(=O)O)C(C)C [Example 14, N^ε26-[(2S)-2-amino-6-[[2-[2-[2-[[2-[2-[2-[[(4S)-4-carboxy-4-[12-(4-carboxyphenoxy)dodecanoylamino]butanoyl]amino]ethoxy]ethoxy]acetyl]amino]ethoxy]ethoxy]acetyl]amino]hexanoyl], N^ε37-[(2S)-2-amino-6-[[2-[2-[2-[[2-[2-[2-[[(4S)-4-carboxy-4-[12-(4-carboxyphenoxy)dodecanoylamino]butanoyl]amino]ethoxy]ethoxy]acetyl]amino]ethoxy]ethoxy]acetyl]amino]hexanoyl]-[Aib^8,Arg^34, Lys^37]-GLP-1-(7-37)-peptide] | 0.28 | –
